# Patent US20060142326A1, “Use of pyrazolopyridines for the treatment of cognitive deficits” (priority 2003, published 2006)
# Columns and labels:
# [1] = system: granular cells of the cerebellum; experiment: Toxicity induced by kainate on granular cells of the cerebellum, MTT test; format: cell-based, Wistar rat; details: 50 μM kainate, six hours
# Description: (§1) Seven day old Wistar rats are decapitated and their cerebella are dissected. After having removed the meninges, the tissue is cut into small pieces and trypsinised for 15 minutes at 37° C. The cells are disassociated by trituration and placed in cultures at a density of 300,000 cells per cm^2 in Eagle's base medium supplemented with 10% foetal calf serum and 2 mM glutamine. The following day 10 μM ARA-C, an antimitotic, is added so as to prevent proliferation of the glial cells. The cells are treated for 9 days after placing in culture with the etazolate inhibiting compound, before adding toxics, 50 μM kainate or 100 μM N-methyl-D-aspartate in the presence of 10 μM D-serine. 8-bromo-cAMP is added just before the toxics. All of the treatments are carried out at least in duplicate and in at least two different cultures. Following an incubation of six hours, the toxicity is measured by an MTT test. The results, standardised to the untreated average, are statistically analysed by the Wilcoxon test. The significant value is established at p less than or equal to 0.05. Toxicity is measured using the MTT test. Following incubation with the compounds, MTT is added at a final concentration of 0.5 mg/ml per well. The plaques are then incubated for 30 minutes at 37° C. in the dark. […] The absorbance at 550 nm is read and the viability percentage is calculated.
# [2] = system: cortical neurons; experiment: Toxicity induced by NMDA/serine on cortical neurons, MTT test; format: cell-based, Wistar rat; details: 20 μM NMDA + 10 μM D-serine, six hours
# Description: (§2) 16 day old Wistar rat embryos are taken and the cortexes dissected. Following trypsination at 37° C. for 25 minutes, the cells are dissociated by trituration. The cells are sown in minimum essential medium, supplemented with 10% horse serum and 10% foetal calf serum and 2 mM glutamine, at a density of 300,000 cells per cm^2. After 4 days in culture half of the medium is changed with minimum essential medium supplemented with 5% horse serum and 2 mM glutamine. […] After seven and eleven days of culture, half of the medium is changed with conditioned medium. The conditioned medium is made up from MEM containing 5% horse serum and 2 mM glutamine; this medium is passed over a carpet of cortical astrocytes for a night before being used. On day 14, the cells are treated with the etazolate inhibitor compound, before adding toxics, 50 μM kainate or 20 μM N-methyl-D-aspartate in the presence of 10 μM D-serine. All of the treatments are carried out at least in duplicate and in at least two different cultures. Following an incubation of six hours the toxicity is measured by an MTT test. The results, standardised to the untreated average, are statistically analysed by the Wilcoxon test. The significant value is established at ρ less than or equal to 0.05. Toxicity is measured using the MTT test. […] The absorbance at 550 nm is read and the viability percentage is calculated.
# [3] = Single increasing oral dose study in healthy volunteers (tolerance, plasmatic dosage); format: in vivo, human
# Description: In this study, single, increasing doses of etazolate (0.5, 1, 2, 5, 10 and 20 mg) were administered orally in the form of capsules dosed at 0.5 and 5 mg to different and sequential groups of eight young, healthy, volunteer subjects of the male sex. This study was carried out in just one centre, double-blind, and two of the eight subjects were given a placebo. The parameters evaluated were clinical (appearance of adverse effects, of clinical signs, change in arterial pressure or heart rate), electrocardiographic (ECG recording) and biological tolerance (hematology and sanguineous biochemistry, urinary examination) for the 24 hrs following administration of the product. A plasmatic dosage of the product was carried out in each subject at different times before and after administration of the product (0.25-0.50-1.00-1.50-2.00-3.00-4.00-5.00-6.00-8.00-10.00-12.00 and 24.00 hours). A urinary dosage of the product was also carried out from urines collected before and after administration of the product (4, 4-8, 8-12 and 12-24 hours).
# [4] = system: SH-SY5Y cells; experiment: Toxicity induced by 6-hydroxydopamine (oxidative stress) on SH-SY5Y cells, MTT test; format: cell-based, human; details: 6-OHDA treatment
# Description: In this example, cells from the SH-SY5Y line were placed in culture according to the techniques known to experts in the field. These cells, derived from a human neuroblast, have properties which characterise a neuronal precursor at a premature stage of development. The toxic used is 6-hydroxydopamine (6-OHDA) which induces oxidative stress. Toxicity is measured by an MTT test.
# [5] = system: old rats; experiment: Aquatic labyrinth test (Morris pool) in old rats; format: in vivo, rat
# Excerpt: This test is used to evaluate the capacities to memorise and to manage spatial information in rats in an aversive situation. The task consists for the animal of locating with the help of distance indices a <<refuge >> platform, invisible by immersion in a tank filled with opacified water. The device makes it possible to evaluate the reference memory of the animal (the platform remains in the same place on each day of the test). This test makes it possible to appreciate the […] performances dependent upon the functions of the hippocampus of the animals tested. In particular, this test makes it possible to discriminate between the performances of adult rats (10 months) and those of old rats (30 months). The hippocampus is a cerebral structure the functions of which are altered prematurely in Alzheimer's disease. The Morris pool test is therefore particularly recognised by experts in the field as making it possible to appreciate the pharmacological properties of compounds intended to treat Alzheimer's disease and other diseases associated with a cognitive deficit. Old rats treated with etazolate (3 mg/kg and 10 mg/kg) administered orally and rats treated by the vehicle were used for this study. The performances of these animals in the Morris pool test were compared to those of a control group of adult rats.
# [6] = system: cerebral infarction in rats; experiment: Model of cerebral infarction in rats (occlusion of the internal carotide and medium arteries of the brain); format: in vivo; details: rat
# Description: The in vivo protective effect of etazolate was evaluated in a model of cerebral infarction in rats. During this study, a cerebral infarction was brought about by an intracavity occlusion of the internal carotide and the medium arteries of the brain. A group of eight rats was treated with etazolate (10 mg/kg, p.o.) before and several times after occlusion. A group of eight rats was treated with the reference compound, L-NAME (1 mg/kg, i.p.) before and several times after occlusion. A group of eight rats was only treated with the vehicle. The effects were evaluated by clinical observations, neurological function tests and by establishing the size of the infarction at the end of the study.
# [7] = system: granular cells of the cerebellum; experiment: Toxicity induced by NMDA/serine on granular cells of the cerebellum, MTT test; format: cell-based, Wistar rat; details: 100 μM NMDA + 10 μM D-serine, six hours
# Description: as §1
# [8] = system: ventral spinal cord cells; experiment: Toxicity induced by NMDA/serine on ventral spinal cord cells, MTT test; format: cell-based, Wistar rat; details: 25 μM NMDA + 10 μM D-serine, 3 hours
# Description: The cells are isolated from 14 day old Wistar rat embryos. Upon their arrival, the pregnant female rats are sacrificed by means of carbon dioxide. The series of embryos is taken and placed in a box containing PBS. The spinal cord of each embryo is dissected and the ventral cord is separated from the dorsal cords. The ventral cords are then trypsinised at 37° C. for 20 mins. The effect of the trypsin is halted by the addition of a medium made up from Leibovitz 15 medium, 20% horse serum, N2 (1×) supplement, 20% glucose (3.2 mg/ml), 7.5% bicarbonate (1.8 mg/ml) and L-glutamine (2 mM). The cells are dissociated by trituration. The accumulated tissue is removed and the dissociated cells are then quantified by dying with trypan blue. The cells sown at a density of 250 000 cells/cm^2 in a medium made up from neurobasal medium, horse serum (2%), B27 (1×) supplement, and glutamine (2 mM). After 3 days of in vitro culture, an anti-mitotic agent, ARA-C (5 μM), is added to the cells so as to inhibit production of glial cells. The cells are placed in culture at 37° C. in a humidified incubator (5% CO2) for 9 days. […] The results are standardised to the average of the untreated controls and analysed statistically by means of a Wilcoxon test with ρ less than 0.05. Toxicity is measured using the MTT test. […] The absorbance at 550 nm is read and the viability percentage is calculated.
# [9] = system: cortical neurons; experiment: Toxicity induced by kainate on cortical neurons, MTT test; format: cell-based, Wistar rat; details: 50 μM kainate, six hours
# Description: as §2
compound,measurement,setting,value
CCOC(=O)c1cnc2c(cnn2CC)c1NN=C(C)C [etazolate],protective effect,[1],50%
same,protective effect,[2],47%
same,secondary effects,"[3]; healthy male volunteers, single oral doses 0.5-20 mg",did not involve any secondary effects
same,"tolerance (clinical, electrocardiographic, biological)","[3]; healthy male volunteers, single oral doses 0.5-20 mg, 24 hrs",well tolerated
same,absorption (plasmatic dosages),"[3]; humans, oral capsules, at strong doses",good absorption
same,protective effect,[4],40%
same,performances in the Morris pool test,[5]; 3 mg/kg orally,slightly improves the performances of old rats
same,performances in the Morris pool test,"[5]; 10 mg/kg orally, compared to adult rats",importantly brings the performances of old animals closer to those of adult animals
same,neurological evaluation relative to the control group,[6]; 10 mg/kg p.o.,improvement
same,reduction of the size of the infarction relative to the control,"[6]; 10 mg/kg p.o. before and several times after occlusion, average",28%
same,hypoactivity,"[6]; 10 mg/kg p.o., control group 42%",31%
same,protective effect,[7],40%
same,protective effect,[8],36%
same,protective effect,[9],40%
